Measurements from PMC10044725, “Antioxidant, Anti-Inflammatory and Anti-Diabetic Activities of Tectona grandis Methanolic Extracts, Fractions, and Isolated Compounds” (Antioxidants, 2023).
Marks after values point to notes of the source that are not given here.

Assays:
[1] = DPPH free radical scavenging assay; conditions: isolated compounds; half scavenging concentration; read-out: DPPH Assay SC50
Protocol: The DPPH free radical scavenging activities of T. grandis methanolic extract, different fractions and its compounds were conducted according to Dr. Yang et al.. […] The absorbance was measured using a microplate reader at 517 nm, and ascorbic acid was used as a positive control. The DPPH scavenging activity was calculated according to the following formula: Scavenging activity (%) = [1 − (A1 − A2)/(A3 − A4)] × 100% (1) where A1 is the OD value of the tested samples, A2 is the OD value of the sample control, A3 is the OD value of the negative control and A4 is the OD value of the blank control. The analysis was performed in triplicates and the results were described as SC50 values.

[2] = ABTS radical cation scavenging assay (Trolox equivalent); conditions: compounds at 50 μM
Protocol: The ABTS radical cation (ABTS•+) scavenging activities were conducted in accordance with the instructions for the ABTS kit. The total antioxidant activity values were estimated using the Trolox equivalent antioxidant capacity test. The detection concentration of methanolic extract and different fractions was 80 μg/mL, and the detection concentration of compounds (1–23) was 50 μM. […] Then, 190 μL of ABTS working reagent was mixed with 10 μL sample and incubated at room temperature for 5 min. The absorbance was then measured using a microplate reader at 734 nm, and the scavenging activity was calculated according to Equation (2). The blank control group used DMSO to replace the sample. […] The analysis was performed in triplicates, 1.424, 0.0012 was a constant.

[3] = system: BSA; experiment: Prevention of AAPH-induced protein oxidative damage; parameters: species or system Bovine; conditions: AAPH 160 mM; residual BSA
Protocol: The protective activities of T. grandis methanolic extract, different fractions and its compounds 15 and 23 on protein oxidative damage were carried out using the method of Yang et al.. Initially, 20 μL BSA solutions (1 mg/mL) in PBS (0.1 M, pH 6.8) were mixed with different concentrations of fractions (40 μL) and compounds (40 μL) and incubated in water at 37 °C for 30 min. Then, 40 μL AAPH (160 mM) was added to the mixture and the reaction continued for 4 h. The control group used the same volume of PBS (0.1 M, pH 6.8) to replace AAPH. The pre-treated samples were added to 5 × SDS loading buffer and treated in water at 95 °C for 15 min. […] After electrophoresis, the gels were stained with Coomassie brilliant blue R-250 dye (0.25%, w/v), and then the gels were decolorized with the decolorizing solution. Finally, images were taken using the SDS-PAGE gel imaging system (ChampChemi 610, China) and the grayscale of Western blot was analyzed using Image J software.

In the case of O=C(O)c1cc(O)c(O)c(O)c1 [Compound 23, gallic acid], the EC50 [1] is reported as 320 ± 70 nM, the “ABTS Assay” value [2] is reported as 0.95 ± 0.02 ^a mmol Trolox/L and the “concentration at which a protective effect against protein oxidative damage begins” value [3] is reported as 320 µM.
